Assay results reported in publication PMC12591137, “Emodin Alleviates Sepsis‐Induced Multiorgan Damage by Inhibiting NETosis through Targeting Neutrophils BCL‐10” (Advanced Science, 2025).

What was measured:
[1] = target: T1, rhBCL-10 (recombinant human BCL-10) (Homo sapiens, UniProt O95999); assay: SPR (Biacore T200), global […] Langmuir kinetic fit; format: binding
T1 construct: gene BCL10; recombinant human protein, amine-coupled on sensor chip for SPR
T1 sequence (O95999 1-233): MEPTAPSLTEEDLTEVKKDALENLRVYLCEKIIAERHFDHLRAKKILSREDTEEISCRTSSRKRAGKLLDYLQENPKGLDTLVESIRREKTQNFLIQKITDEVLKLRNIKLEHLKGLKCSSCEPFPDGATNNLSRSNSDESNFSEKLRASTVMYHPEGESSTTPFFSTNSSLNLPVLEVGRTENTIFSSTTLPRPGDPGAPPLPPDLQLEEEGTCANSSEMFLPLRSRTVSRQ

Flag-BCL-10 = target: T2, Flag-BCL-10 (Homo sapiens, UniProt O95999); assay: competition of free emodin against pull-down by emodin-Sepharose, anti-Flag western blot; format: biochemical; conditions: 100 µM free emodin; HEK293T lysate, pH 7.4, 4 °C
T2 construct: gene BCL10; Flag-tagged, overexpressed in HEK293T, cell lysate; plasmid section instead says N-terminal 'Streptococcus' tag in pCDH-EF1-MCS-T2A-Puro
T2 sequence (O95999 1-233): T1 sequence (O95999 1-233)

[2] = target: T1, rhBCL-10 (recombinant human BCL-10); assay: thermal shift, soluble protein by western blot; format: binding; conditions: 100 µM emodin, 37-67 °C; text says recombinant BCL-10, methods describe lysate of PMA-treated HL-60 cells

Kd [1]: 1940 nM
Structure (SMILES): Cc1cc(O)c2c(c1)C(=O)c1cc(O)cc(O)c1C2=O [Emodin]
competition of free emodin against pull-down by emodin-Sepharose, anti-Flag west (Flag-BCL-10): free Emodin competitively inhibited the binding of Flag-BCL-10 to Emodin-Sepharose
thermal stabilisation [2]: Emodin binding significantly enhances BCL-10′s thermal resistance
